Laboratory results reported in ChEMBL document CHEMBL1143568, “A new class of selective myocardial calcium channel modulators. 2. Role of the acetal chain in oxadiazol-3-one derivatives” (J Med Chem, 2005).

What was measured:
[1] = organism: Cavia porcellus; experiment: Negative inotropic activity as decrease in the developed tension in isolated guinea pig left artium at 5x10E-5 M (n=4-6)
[2] = organism: Cavia porcellus; experiment: Negative inotropic potency as decrease in the developed tension in isolated guinea pig left artium
[3] = organism: Cavia porcellus; experiment: Negative chronotropic activity was determined as percent decrease in the artial rate in spontaneously beating guinea pig artium at 5x10E-5 M (n=6-8)
[4] = organism: Cavia porcellus; experiment: Vasorelaxant activity determined by percentage inhibition of calcium-induced contraction on K+ depolarized guinea pig aortic strip at 5x10E-5 M
[5] = organism: Cavia porcellus; experiment: Negative chronotropic activity was determined as percent decrease in the artial rate in spontaneously beating guinea pig artium at5x10E-5 M (n=6-8)
[6] = organism: Cavia porcellus; experiment: Negative inotropic activity as decrease in the developed tension in isolated guinea pig left artium at 10E-5 M (n=4-6)
[7] = organism: Cavia porcellus; experiment: Vasorelaxant activity determined by percentage inhibition of calcium-induced contraction on K+ depolarized guinea pig aortic strip
[8] = organism: Cavia porcellus; experiment: Negative inotropic activity as decrease in the developed tension in isolated guinea pig left artium 10E-6 M (n=4-6)
[9] = organism: Cavia porcellus; experiment: Negative chronotropic activity was determined as percent decrease in the artial rate in spontaneously beating guinea pig artium at 10E-5 M (n=6-8)
[10] = organism: Cavia porcellus; experiment: Compound was tested for percent change in coronary perfusion pressure in isolated guinea pig atrium
[11] = organism: Cavia porcellus; experiment: Compound was tested for percent change in heart rate in isolated guinea pig atrium
[12] = organism: Cavia porcellus; experiment: Negative inotropic activity as decrease in the developed tension in isolated guinea pig left artium at 10E-6 M (n=4-6)
[13] = organism: Cavia porcellus; experiment: Compound was tested for percent change in atrioventricular conduction time in isolated guinea pig atrium
[14] = organism: Cavia porcellus; experiment: Compound was tested for percent change in maximal rate of the rise in left ventricular pressure in isolated guinea pig atrium
[15] = organism: Cavia porcellus; experiment: Negative inotropic activity as decrease in the developed tension in isolated guinea pig left artium at 5x10E-5 M (n=4-6); remark: listed apart in the source
[16] = organism: Cavia porcellus; experiment: Negative inotropic activity as decrease in the developed tension in isolated guinea pig left artium 5x10E-5 M (n=4-6)
[17] = organism: Cavia porcellus; experiment: Negative inotropic activity as decrease in the developed tension in isolated guinea pig left artium at 5x10E-6 M (n=4-6)
[18] = organism: Cavia porcellus; experiment: Negative inotropic activity as decrease in the developed tension in isolated guinea pig left artium at 10E-5 M (n=4-6); remark: listed apart in the source
[19] = organism: Cavia porcellus; experiment: Negative inotropic potency as maximal rate of the rise in left ventricular pressure in isolated guinea pig atrium; settings: Cardiac atrium
[20] = organism: Cavia porcellus; experiment: Selectivity ratio against negative inotropic potency on left atrium to that of negative inotropic potency on left ventricular papillary muscle in guinea pig
[21] = organism: Cavia porcellus; experiment: Negative inotropic potency as coronary perfusion pressure in isolated guinea pig atrium; settings: Cardiac atrium
[22] = organism: Cavia porcellus; experiment: Negative inotropic potency is determined by decrease in the developed tension on isolated left ventricular papillary muscle (n=5-7); settings: Muscle tissue

| SMILES | EC50 [2] | Decrease [1] | Decrease [3] | Decrease [4] | other results |
| --- | --- | --- | --- | --- | --- |
| CCCOC1(c2ccc(Br)cc2)SC=C(C)n2c1noc2=O (configuration not stated) | 410 nM | 69% |  | 14% | Decrease [5]: 12% |
| CC1=CS[C@@](O)(c2ccc(Cl)cc2)c2noc(=O)n21 | 800 nM |  | 18% | 26% | Decrease [6]: 80% |
| CCCCOC1(c2ccc(Cl)cc2)SC=C(C)n2c1noc2=O (configuration not stated) | 1850 nM | 62% | 9% | 9% |  |
| CC/C=C/COC1(c2ccc(Br)cc2)SC=C(C)n2c1noc2=O (configuration not stated) |  | 43% | 10% | 11% |  |
| CCCCCCCCCCCCCCCOC1(c2ccc(Cl)cc2)SC=C(C)n2c1noc2=O (configuration not stated) | 1130 nM | 69% | 9% | 3% |  |
| CC/C=C/COC1(c2ccc(Cl)cc2)SC=C(C)n2c1noc2=O (configuration not stated) |  | 46% | 8% | 10% |  |
| COC1(c2ccc(Br)cc2)SC=C(C)n2c1noc2=O (configuration not stated) |  |  |  | 13% | Decrease [8]: 38%; Decrease [9]: 9% |
| CCO[C@@]1(c2ccc(Br)cc2)SC=C(C)n2c1noc2=O | 40 nM |  |  | 19% | Change [10]: 32%; Change [11]: -9%; Decrease [12]: 77%; Change [13]: -3%; Change [14]: -14%; Decrease [9]: 5% |
| CCCCCCCC/C=C\CCCCCCCCO[C@@]1(c2ccc(Cl)cc2)SC=C(C)n2c1noc2=O | 870 nM | 70% | 14% | 7% |  |
| CC1=CS[C@@](OCC2CCCCC2)(c2ccc(Br)cc2)c2noc(=O)n21 | 190 nM | 78% | 8% | 3% |  |
| CCCCCCCCCCCCCCCCCCO[C@@]1(c2ccc(Br)cc2)SC=C(C)n2c1noc2=O | 970 nM | 66% | 5% | 6% |  |
| CCCCCOC1(c2ccc(Cl)cc2)SC=C(C)n2c1noc2=O (configuration not stated) |  |  | 14% | 15% | Decrease [15]: 45% |
| CCCCCCCCCCCCOC1(c2ccc(Cl)cc2)SC=C(C)n2c1noc2=O (configuration not stated) | 870 nM |  | 5% | 5% | Decrease [16]: 56% |
| CCCCCCCCCOC1(c2ccc(Cl)cc2)SC=C(C)n2c1noc2=O (configuration not stated) | 790 nM | 73% | 11% | 4% |  |
| CC1=CSC(OCC(C)C)(c2ccc(Cl)cc2)c2noc(=O)n21 (configuration not stated) | 560 nM | 83% | 15% | 37% |  |
| COC1(c2ccc(Cl)cc2)SC=C(C)n2c1noc2=O (configuration not stated) | 1540 nM | 62% | 22% | 14% |  |
| CCCCCCOC1(c2ccc(Cl)cc2)SC=C(C)n2c1noc2=O (configuration not stated) | 640 nM | 68% | 10% | 3% |  |
| CC/C=C\COC1(c2ccc(Cl)cc2)SC=C(C)n2c1noc2=O (configuration not stated) | 1310 nM | 67% | 5% | 10% |  |
| CCCCCCCCCO[C@@]1(c2ccc(Br)cc2)SC=C(C)n2c1noc2=O | 350 nM | 71% | 7% | 3% |  |
| CC1=CS[C@@](OC(C)C)(c2ccc(Cl)cc2)c2noc(=O)n21 | 220 nM |  | 10% | 10% | Decrease [17]: 64% |
| CCCCCOC1(c2ccc(Br)cc2)SC=C(C)n2c1noc2=O (configuration not stated) |  | 34% | 2% | 3% |  |
| CCO[C@@]1(c2ccc(Cl)cc2)SC=C(C)n2c1noc2=O | 270 nM | 53% | 16% | 28% |  |
| CCCCOC1(c2ccc(Br)cc2)SC=C(C)n2c1noc2=O (configuration not stated) | 1020 nM | 82% | 18% | 2% |  |
| CCCCCCCCCCCCCCCCCCOC1(c2ccc(Cl)cc2)SC=C(C)n2c1noc2=O (configuration not stated) |  | 39% |  | 2% | Decrease [9]: 15% |
| CC1=CSC(OC(C)C)(c2ccc(Br)cc2)c2noc(=O)n21 (configuration not stated) | 270 nM |  | 4% | 18% | Decrease [18]: 58% |
| CCCCCCCC/C=C\CCCCCCCCO[C@@]1(c2ccc(Br)cc2)SC=C(C)n2c1noc2=O | 1260 nM | 84% | 9% | 2% |  |

Second part, led by results:

| EC50 [2] | SMILES | Decrease [1] | Decrease [3] | Decrease [4] | other results |
| --- | --- | --- | --- | --- | --- |
| 550 nM | C=CCOC1(c2ccc(Br)cc2)SC=C(C)n2c1noc2=O (configuration not stated) | 91% | 13% | 13% |  |
| 320 nM | CC1=CS[C@@](O)(c2ccc(Br)cc2)c2noc(=O)n21 | 97% | 18% | 12% |  |
| 830 nM | CCCCCCOC1(c2ccc(Br)cc2)SC=C(C)n2c1noc2=O (configuration not stated) | 81% | 9% | 2% |  |
| 890 nM | CCCOC1(c2ccc(Cl)cc2)SC=C(C)n2c1noc2=O (configuration not stated) | 73% | 7% | 20% |  |
| 420 nM | CCCCCCCCCCCCCCCO[C@@]1(c2ccc(Br)cc2)SC=C(C)n2c1noc2=O | 75% | 12% |  | Decrease [7]: 4% |
| 590 nM | CC1=CSC(OCc2ccccc2)(c2ccc(Br)cc2)c2noc(=O)n21 (configuration not stated) | 63% | 4% | 2% |  |
| 240 nM | CC1=CS[C@@](OCC2CCCCC2)(c2ccc(Cl)cc2)c2noc(=O)n21 | 55% | 5% | 5% |  |
| 310 nM | CC1=CSC(OCC(C)C)(c2ccc(Br)cc2)c2noc(=O)n21 (configuration not stated) |  | 11% | 6% | Decrease [6]: 79% |
| 370 nM | C=CCOC1(c2ccc(Cl)cc2)SC=C(C)n2c1noc2=O (configuration not stated) | 84% | 13% | 21% |  |
| 130 nM | CCCCCCCCCCCCO[C@@]1(c2ccc(Br)cc2)SC=C(C)n2c1noc2=O |  | 16% | 3% | Decrease [6]: 59% |
| 630 nM | CC/C=C\COC1(c2ccc(Br)cc2)SC=C(C)n2c1noc2=O (configuration not stated) | 81% | 20% | 11% |  |
| 740 nM | CC1=CSC(OCc2ccccc2)(c2ccc(Cl)cc2)c2noc(=O)n21 (configuration not stated) | 63% | 5% | 4% |  |
| 790 nM | COc1ccc([C@@H]2Sc3ccccc3N(CCN(C)C)C(=O)[C@@H]2OC(C)=O)cc1 [DILTIAZEM] |  | 94% | 88% | Change [10]: -51%; Change [11]: -25%; Decrease [6]: 78%; Change [13]: 34%; EC50 [19]: 9.33 nM; Selectivity [20]: 2.04; Change [14]: -59%; EC50 [21]: 21.9 nM; EC50 [22]: 1610 nM |
